Data published in patent US20250360105A1, “USE OF ERGOTHIONEINE FOR ANTI-AGING” (NANJING NUTRABUILDING BIO-TECH CO., LTD., priority 2022, published 2025).

Assays:
progerin = test: Taqman quantitative real-time PCR of progerin mRNA in coronary artery endothelial cells of aging mice; format: in vivo; conditions: 56-week-old mice treated with EGT every day, compared to without EGT treated; FIG. 1
Experimental: (§1) 18 […]/6 male mice aged about 8 weeks, were randomly assigned to three study groups (GA, GB, GC). The total experimental time was 56 weeks, and the control group was consisted of 12 animals, and all of the animals were maintained in an animal facility room under controlled environmental conditions (22±1° C., 12 h-light/12 h dark cycle, free access to food and water). All procedures were carried out in accordance with institutional policies on experimental animal handling. Treatment details of the individual study groups were: Group A (GA): euthanized at the age of 10 weeks; Group B (GB): euthanized at the age of 56 weeks without EGT treated; Group C (GC): euthanized at the age of 56 weeks with EGT treated every day. For all the euthanized mice, formalin-fixed paraffin embedded 3 μm sections were prepared from the tissues of coronary artery, and were snap-frozen and stored at -80° C. Taqman quantitative real-time PCR was used for detection of progerin mRNA. Messenger RNA was extracted using RNeasy Mini Kit Plus (Qiagen, Valencia, CA). The Taqman probe was as described by Rodriguez et al. (Rodriguez, S., et al., Increased expression of the Hutchinson Gilford progeria syndrome truncated lamin A transcript during cell aging. 2009. 17(7): p. 928-937). The forward primer was [NT] ID NO: 1), and the reverse primer was [NT] ID NO: 2).

lamin A = test: Taqman quantitative real-time PCR of lamin A mRNA in coronary artery endothelial cells of aging mice; format: in vivo; conditions: 56-week-old mice treated with EGT every day, compared to without EGT treated; FIG. 1
Experimental: as §1

lamin C = test: Taqman quantitative real-time PCR of lamin C mRNA in coronary artery endothelial cells of aging mice; format: in vivo; conditions: 56-week-old mice treated with EGT every day, compared to without EGT treated; FIG. 1
[1] = tested on: pro-inflammatory cytokines IL-1α, IL-1β, IL-6, and TNF-α; test: Quantification of pro-inflammatory cytokines in serum of aging mice using ELISA Array kit; format: in vivo; conditions: serum of 56-week-old mice, EGT compared to without EGT treatment, FIG. 2
Experimental: 18 […]/6 male mice aged about 8 weeks, were randomly assigned to three study groups (GA, GB, GC). The total experimental time was 56 weeks, and the control group was consisted of 12 animals, and all of the animals were maintained in an animal facility room under controlled environmental conditions (22±1° C., 12 h-light/12 h dark cycle, free access to food and water). All procedures were carried out in accordance with institutional policies on experimental animal handling. Treatment details of the individual study groups were: Group A (GA): euthanized at the age of 10 weeks; Group B (GB): euthanized at the age of 56 weeks without EGT treated; Group C (GC): euthanized at the age of 56 weeks with EGT treated every day.

[2] = tested on: vascular and intracellular adhesion molecules in endothelial cells; conditions: Anticoli et al. 2010; cited from earlier work

In the case of C[N+](C)(C)[C@@H](Cc1c[nH]c(=S)[nH]1)C(=O)[O-] [EGT, Ergothioneine], the “mRNA expression of progerin in coronary artery endothelial cells” value (progerin) is reported as “obvious decrease”, the “mRNA of lamin A in coronary artery endothelial cells” value (lamin A) is reported as “decrease” and the “mRNA of lamin C in coronary artery endothelial cells” value (lamin C) is reported as “decrease”. The “pro-inflammatory cytokines (IL-1α, IL-1β, IL-6, TNF-α)” value [1] was “obvious decrease” and the “IL-1β-induced expression of vascular and intracellular adhesion molecules” value [2] was “inhibit”.
